From PMC5651017, “Molecular Insight into the Acryloyl-CoA Hydration by AcuH for Acrylate Detoxification in Dimethylsulfoniopropionate-Catabolizing Bacteria” (Frontiers in Microbiology, 2017)

Assays:
Type in all cases: biochemical
Settings in all cases: acryloyl-CoA made in situ by D. shibae PrpE from 0.5 mM acrylate, CoA and ATP; 1 uM RdAcuH, 5 min, 5 mM MgCl2, 100 mM Tris-HCl pH 8.0
RdAcuH [1] = biological target: T1, RdAcuH (Roseovarius nubinhibens, UniProt A3SKA6); test: HPLC / LC-MS of hydration to 3-HP-CoA
T1 construct: gene ISM_05820; no signal peptide; pET-22b (NdeI/XhoI) in E. coli BL21(DE3), Ni-NTA purified; active site between NTD of one subunit and CTD of the neighbouring subunit
T1 sequence (A3SKA6 1-258): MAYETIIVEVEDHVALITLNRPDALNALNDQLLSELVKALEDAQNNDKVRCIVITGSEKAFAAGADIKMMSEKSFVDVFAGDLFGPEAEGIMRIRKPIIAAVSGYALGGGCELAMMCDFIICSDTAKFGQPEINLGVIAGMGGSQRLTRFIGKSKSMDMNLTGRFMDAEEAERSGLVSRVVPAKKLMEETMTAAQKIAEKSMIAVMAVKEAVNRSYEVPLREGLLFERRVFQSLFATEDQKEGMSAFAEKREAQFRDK

RdAcuH [2] = biological target: T2, RdAcuH (Roseovarius nubinhibens, UniProt A3SKA6, E132A); test: relative activity, 3-HP-CoA formation by HPLC / LC-MS
T2 construct: gene ISM_05820; no signal peptide; pET-22b (NdeI/XhoI) in E. coli BL21(DE3), Ni-NTA purified; active site between NTD of one subunit and CTD of the neighbouring subunit

RdAcuH [3] = biological target: T3, RdAcuH (Roseovarius nubinhibens, UniProt A3SKA6, E112A); test: as above
T3 construct: gene ISM_05820; no signal peptide; pET-22b (NdeI/XhoI) in E. coli BL21(DE3), Ni-NTA purified; active site between NTD of one subunit and CTD of the neighbouring subunit
T3 sequence (A3SKA6 entry or part of it E112A): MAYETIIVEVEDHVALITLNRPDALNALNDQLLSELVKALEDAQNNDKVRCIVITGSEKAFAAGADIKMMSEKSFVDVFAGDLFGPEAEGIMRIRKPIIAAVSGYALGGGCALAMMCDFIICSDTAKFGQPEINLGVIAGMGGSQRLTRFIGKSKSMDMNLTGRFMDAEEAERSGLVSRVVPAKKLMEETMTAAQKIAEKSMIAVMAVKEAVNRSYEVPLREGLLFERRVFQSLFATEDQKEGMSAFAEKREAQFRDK

T2 sequence (A3SKA6 entry or part of it E132A): as the sequence (A3SKA6 entry or part of it E112A) above, with A112E, E132A counted along it

CC(C)(COP(=O)(O)OP(=O)(O)OC[C@H]1O[C@@H](n2cnc3c(N)ncnc32)[C@H](O)[C@@H]1OP(=O)(O)O)[C@@H](O)C(=O)NCCC(=O)NCCSC(=O)CCO [3-HP-CoA]
HPLC / LC-MS of hydration to 3-HP-CoA (RdAcuH [1]): RdAcuH has acryloyl-CoA hydratase activity and can catalyze acryloyl-CoA to 3-HP-CoA

C=CC(=O)SCCNC(=O)CCNC(=O)[C@H](O)C(C)(C)COP(=O)(O)OP(=O)(O)OC[C@H]1O[C@@H](n2cnc3c(N)ncnc32)[C@H](O)[C@@H]1OP(=O)(O)O [acryloyl-CoA]
HPLC / LC-MS of hydration to 3-HP-CoA (RdAcuH [1]): acryloyl-CoA was hydrated by RdAcuH and 3-HP-CoA was produced | relative activity (RdAcuH [2]): mutations on each of the glutamates to alanine resulted in the inactivation of RdAcuH | relative activity (RdAcuH [3]): mutations on each of the glutamates to alanine resulted in the inactivation of RdAcuH
